Source: PMC10196118, “Evidence for broad cross-reactivity of the SARS-CoV-2 NSP12-directed CD4^+ T-cell response with pre-primed responses directed against common cold coronaviruses” (Frontiers in Immunology, 2023)

Experiments:
Assay in all cases: biochemical
Format in all cases: binding
HLA DRB1*12:01 = HLA DRB1*12:01 (Homo sapiens, UniProt P01903+P01911, A100R/A169T/D57E/D86V/F55L/H45Y/K41T/L162R/M171V/P40S/Q125H/Q178H/Q39Y/Q99D/R42G/S66L/T262R/V114A/V67L/W38E/Y59H/Y61H/Y89S); conditions: binder threshold 1,000 nM, read-out: In vitro (IC50 nM) DRB1*12:01
HLA DRB1*08:02 = HLA DRB1*08:02 (Homo sapiens, UniProt P01903+P01911, A100R/A103L/A169T/F76Y/H45Y/I96F/K41T/L162R/M171V/P40S/Q125H/Q178H/Q39Y/Q99D/R218S/R42G/S66Y/V115G/W38E); conditions: binder threshold 1,000 nM, read-out: In vitro (IC50 nM) DRB1*08:02
HLA DRB1*07:01 = HLA DRB1*07:01 (Homo sapiens, UniProt P01903+P01911, A100R/A102G/A103Q/D57E/D86V/E43K/F76Y/K127E/L162R/M171V/P40G/Q125H/Q99D/R33Q/R42Y/R54Q/S133A/S66F/T210M/V115G/Y107V/Y59L/Y89S); conditions: binder threshold 1,000 nM, read-out: In vitro (IC50 nM) DRB1*07:01
HLA DRB1*13:02 = HLA DRB1*13:02 (Homo sapiens, UniProt P01903+P01911, A100E/A169T/K41T/L162R/M171V/P40S/Q125H/Q178H/Q39Y/Q99D/R42S/S66N/T262R/V115G/W38E/Y61H); conditions: binder threshold 1,000 nM, read-out: In vitro (IC50 nM) DRB1*13:02
Chain of HLA DRB1*13:02 (P01903 26-254 limits assumed, other chains not shown): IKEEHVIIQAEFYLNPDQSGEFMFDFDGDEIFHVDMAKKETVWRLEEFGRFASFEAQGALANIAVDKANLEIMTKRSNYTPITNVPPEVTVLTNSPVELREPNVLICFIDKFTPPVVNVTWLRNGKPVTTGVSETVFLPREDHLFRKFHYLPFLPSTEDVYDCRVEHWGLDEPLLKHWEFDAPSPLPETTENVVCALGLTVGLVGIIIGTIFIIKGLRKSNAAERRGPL
HLA DRB1*03:01 = HLA DRB1*03:01 (Homo sapiens, UniProt P01903+P01911, A100K/A102G/A103R/A169T/F55Y/I96L/K41T/L162R/M171V/P40S/Q125H/Q178H/Q39Y/R42S/S66N/T106N/T262R/W38E/Y61H); conditions: binder threshold 1,000 nM, read-out: In vitro (IC50 nM) DRB1*03:01
Chain of HLA DRB1*03:01 (P01903 26-254, other chains not shown): as the sequence (P01903 26-254 limits assumed, other chains not shown) above
HLA DRB1*15:01 = HLA DRB1*15:01 (Homo sapiens, UniProt P01903+P01911); conditions: binder threshold 1,000 nM, read-out: In vitro (IC50 nM) DRB1*15:01
HLA DRB1*09:01 = HLA DRB1*09:01 (Homo sapiens, UniProt P01903+P01911, A100R/A103E/D57H/D86V/F55Y/F60I/F76Y/I96F/K127E/L162R/M171V/P40D/Q125H/Q99R/R33Q/R42F/S133A/S66N/T210M/V115G/W38K/Y107V/Y59G/Y89S); conditions: binder threshold 1,000 nM, read-out: In vitro (IC50 nM) DRB1*09:01
HLA DRB1*01:01 = HLA DRB1*01:01 (Homo sapiens, UniProt P01903+P01911, A100R/D57E/F55L/F60I/F76Y/I96L/L162R/M171V/P40L/Q125E/R42F/V115G/Y59C); conditions: binder threshold 1,000 nM, read-out: In vitro (IC50 nM) DRB1*01:01
HLA DRB1*04:01 = HLA DRB1*04:01 (Homo sapiens, UniProt P01903+P01911, A100K/A169T/F76Y/I96L/K127E/L162R/M171V/N62H/P40V/Q125Y/R42H/S133A/S149N/S66Y/V115G/V209L/W38E); conditions: binder threshold 1,000 nM, read-out: In vitro (IC50 nM) DRB1*04:01
HLA DRB1*11:01 = HLA DRB1*11:01 (Homo sapiens, UniProt P01903+P01911, A100R/A169T/A87E/I96F/K41T/L162R/M171V/P40S/Q125H/Q178H/Q39Y/Q99D/R42S/S66Y/T262R/V115G/W38E); conditions: binder threshold 1,000 nM, read-out: In vitro (IC50 nM) DRB1*11:01
Chain of HLA DRB1*11:01 (P01903 26-254, other chains not shown): as the sequence (P01903 26-254 limits assumed, other chains not shown) above
HLA DRB1*04:05 = HLA DRB1*04:05 (Homo sapiens, UniProt P01903+P01911, A100R/A169T/D86S/F76Y/I96L/K127E/L162R/M171V/N62H/P40V/Q125Y/R42H/S133A/S149N/S66Y/V115G/V209L/W38E); conditions: binder threshold 1,000 nM, read-out: In vitro (IC50 nM) DRB1*04:05

## CC[C@H](C)[C@H](NC(=O)[C@H](CCSC)NC(=O)[C@H](CCSC)NC(=O)[C@H](CO)NC(=O)[C@H](Cc1ccccc1)NC(=O)[C@H](Cc1c[nH]cn1)NC(=O)[C@H](CCCCN)NC(=O)[C@H](CCCNC(=N)N)NC(=O)[C@H](CC(C)C)NC(=O)[C@H](Cc1ccc(O)cc1)NC(=O)[C@H](C)NC(=O)[C@@H](N)Cc1ccc(O)cc1)C(=O)N[C@@H](CC(C)C)C(=O)N[C@@H](CO)C(=O)N[C@@H](CC(=O)O)C(=O)O [Peptide 150]
HLA DRB1*12:01
  IC50: 96 nM
HLA DRB1*08:02
  IC50: 138 nM
HLA DRB1*07:01
  IC50: 0.73 nM
HLA DRB1*13:02
  IC50: 755 nM
HLA DRB1*03:01
  IC50: 5020 nM
HLA DRB1*15:01
  IC50: 0.23 nM
HLA DRB1*09:01
  IC50: 4.8 nM
HLA DRB1*01:01
  IC50: 495 nM
HLA DRB1*04:01
  IC50: 102 nM
HLA DRB1*11:01
  IC50: 7.9 nM
HLA DRB1*04:05
  IC50: 318 nM

## CC(C)C[C@H](NC(=O)[C@H](CCCNC(=N)N)NC(=O)[C@H](Cc1ccc(O)cc1)NC(=O)[C@H](Cc1ccccc1)NC(=O)[C@H](CCCNC(=N)N)NC(=O)[C@H](Cc1c[nH]cn1)NC(=O)[C@H](CO)NC(=O)[C@H](CC(C)C)NC(=O)[C@H](CO)NC(=O)[C@H](CS)NC(=O)[C@H](CS)NC(=O)[C@@H](NC(=O)[C@@H](NC(=O)[C@H](Cc1c[nH]cn1)NC(=O)[C@@H](N)CCCCN)[C@@H](C)O)[C@@H](C)O)C(=O)O [NSP12_129]
HLA DRB1*12:01
  IC50: 59 nM
HLA DRB1*08:02
  IC50: 1010 nM
HLA DRB1*07:01
  IC50: 56 nM
HLA DRB1*13:02
  IC50: 1170 nM
HLA DRB1*03:01
  IC50: 916 nM
HLA DRB1*15:01
  IC50: 447 nM
HLA DRB1*09:01
  IC50: 286 nM
HLA DRB1*01:01
  IC50: 279 nM
HLA DRB1*04:01
  IC50: 613 nM
HLA DRB1*11:01
  IC50: 235 nM
HLA DRB1*04:05
  IC50: 644 nM

## CC[C@H](C)[C@H](NC(=O)[C@@H]1CCCN1C(=O)[C@H](CCSC)NC(=O)[C@@H](N)CC(C)C)C(=O)N[C@@H](CC(C)C)C(=O)N[C@H](C(=O)N[C@@H](CC(C)C)C(=O)N[C@H](C(=O)N[C@@H](CCCNC(=N)N)C(=O)N[C@@H](C)C(=O)N[C@@H](CC(C)C)C(=O)N[C@H](C(=O)N[C@@H](C)C(=O)N[C@@H](CCC(=O)O)C(=O)N[C@@H](CO)C(=O)O)[C@@H](C)O)[C@@H](C)O)[C@@H](C)O [NSP12_49]
HLA DRB1*12:01
  IC50: 131 nM
HLA DRB1*08:02
  IC50: 283 nM
HLA DRB1*07:01
  IC50: 15 nM
HLA DRB1*13:02
  IC50: 409 nM
HLA DRB1*03:01
  IC50: 12100 nM
HLA DRB1*15:01
  IC50: 37 nM
HLA DRB1*09:01
  IC50: 123 nM
HLA DRB1*01:01
  IC50: 136 nM
HLA DRB1*04:01
  IC50: 20 nM
HLA DRB1*11:01
  IC50: 37 nM
HLA DRB1*04:05
  IC50: 367 nM

## CC[C@H](C)[C@H](NC(=O)[C@@H]1CCCN1C(=O)[C@H](CCSC)NC(=O)[C@H](CC(C)C)NC(=O)[C@H](CC(C)C)NC(=O)[C@H](CO)NC(=O)[C@H](Cc1ccc(O)cc1)NC(=O)[C@H](Cc1ccc(O)cc1)NC(=O)[C@@H](N)CO)C(=O)N[C@@H](CC(C)C)C(=O)N[C@H](C(=O)N[C@@H](CC(C)C)C(=O)N[C@H](C(=O)N[C@@H](CCCNC(=N)N)C(=O)N[C@@H](C)C(=O)O)[C@@H](C)O)[C@@H](C)O [NSP12_48]
HLA DRB1*12:01
  IC50: 1350 nM
HLA DRB1*08:02
  IC50: 498 nM
HLA DRB1*07:01
  IC50: 115 nM
HLA DRB1*03:01
  IC50: 9120 nM
HLA DRB1*15:01
  IC50: 23 nM
HLA DRB1*09:01
  IC50: 1550 nM
HLA DRB1*01:01
  IC50: 7.7 nM
HLA DRB1*04:01
  IC50: 224 nM
HLA DRB1*11:01
  IC50: 73 nM
HLA DRB1*04:05
  IC50: 147 nM

## CSCC[C@H](NC(=O)[C@@H](NC(=O)[C@@H]1CCCN1C(=O)[C@H](CC(C)C)NC(=O)[C@H](CC(N)=O)NC(=O)[C@H](Cc1ccc(O)cc1)NC(=O)[C@H](CCCNC(=N)N)NC(=O)[C@H](Cc1ccc(O)cc1)NC(=O)[C@H](Cc1ccc(O)cc1)NC(=O)[C@H](CC(=O)O)NC(=O)[C@H](Cc1ccc(O)cc1)NC(=O)[C@H](CC(=O)O)NC(=O)[C@@H](N)CO)[C@@H](C)O)C(=O)N[C@@H](CS)C(=O)N[C@@H](CC(=O)O)C(=O)O [Peptide 91]
HLA DRB1*12:01
  IC50: 29600 nM
HLA DRB1*08:02
  IC50: 3510 nM
HLA DRB1*07:01
  IC50: 549 nM
HLA DRB1*13:02
  IC50: 13600 nM
HLA DRB1*15:01
  IC50: 1480 nM
HLA DRB1*09:01
  IC50: 1430 nM
HLA DRB1*01:01
  IC50: 6670 nM
HLA DRB1*04:01
  IC50: 830 nM
HLA DRB1*11:01
  IC50: 18200 nM
HLA DRB1*04:05
  IC50: 3280 nM
